In ChEMBL document CHEMBL3885861, “Open TG-GATES”:

Organism: Rattus norvegicus
Experiment: Open TG-GATES - Regimen: Daily Repeat
Format: toxicity, organism-based, Sprague-Dawley
Design: regimen Daily Repeat, gender Male, age 6 weeks
Conditions: in vivo, po, 50 mg/kg, route gavage, dose level Low; for APTT / Bas / Eos / Fbg / Hb / Ht / Lym / MCH / MCHC / MCV / Mono / Neu / PT / Plat / RBC / Ret / WBC: tissue Blood; for KIDNEY_L / KIDNEY_R / KIDNEY_TOTAL: tissue Kidney; for LIVER: tissue Liver; for A/G / ALP / ALT / AST / BUN / CRE / Ca / Cl / DBIL / GLC / IP / K / LDH / Na / PL / RALB / TBIL / TC / TG / TP / gamma-GTP: tissue Plasma

CN1C(=O)CCS(=O)(=O)C1c1ccc(Cl)cc1 (configuration not stated) [CHLORMEZANONE]
TERMINAL_BW (72 h, time 3 day): 226.8 g
APTT (72 h, time 3 day): 15.5 s
Bas (72 h, time 3 day): 0%
Eos (72 h, time 3 day): 1%
Fbg (72 h, time 3 day): 275.6 mg/dL
Hb (72 h, time 3 day): 13.5 g/dL
Ht (72 h, time 3 day): 40.1%
Lym (72 h, time 3 day): 75.2%
MCH (72 h, time 3 day): 22 pg
MCHC (72 h, time 3 day): 33.8%
MCV (72 h, time 3 day): 65.1 fL
Mono (72 h, time 3 day): 2.8%
Neu (72 h, time 3 day): 20.6%
PT (72 h, time 3 day): 12 s
Plat (72 h, time 3 day): 108.6 x10_4/uL
RBC (72 h, time 3 day): 616.2 x10_4/ul
Ret (72 h, time 3 day): 6.5%
WBC (72 h, time 3 day): 81.9 x10_2/uL
KIDNEY_L (72 h, time 3 day): 0.9 g
KIDNEY_R (72 h, time 3 day): 0.9 g
KIDNEY_TOTAL (72 h, time 3 day): 1.8 g
LIVER (72 h, time 3 day): 11.1 g
A/G (72 h, time 3 day): 0.9
ALP (72 h, time 3 day): 1849 IU/L
ALT (72 h, time 3 day): 50.8 IU/L
AST (72 h, time 3 day): 75.8 IU/L
BUN (72 h, time 3 day): 15.6 mg/dL
CRE (72 h, time 3 day): 0.2 mg/dL
Ca (72 h, time 3 day): 11 mg/dL
Cl (72 h, time 3 day): 107.2 meq/L
DBIL (72 h, time 3 day): 0.012 mg/dL
GLC (72 h, time 3 day): 188.8 mg/dL
IP (72 h, time 3 day): 7.5 mg/dL
K (72 h, time 3 day): 4.3 meq/L
LDH (72 h, time 3 day): 64.8 IU/L
Na (72 h, time 3 day): 143.8 meq/L
PL (72 h, time 3 day): 136.4 mg/dL
RALB (72 h, time 3 day): 2.7 g/dL
TBIL (72 h, time 3 day): 0.024 mg/dL
TC (72 h, time 3 day): 78.4 mg/dL
TG (72 h, time 3 day): 73.2 mg/dL
TP (72 h, time 3 day): 5.8 g/dL
gamma-GTP (72 h, time 3 day): 1 IU/L
TERMINAL_BW ([…], time 7 day): 270.7 g
TERMINAL_BW ([…], time 14 day): 321.2 g
TERMINAL_BW ([…], time 28 day): 415.3 g
APTT ([…], time 7 day): 18.3 s
Bas ([…], time 7 day): 0%
Eos ([…], time 7 day): 0.8%
Fbg ([…], time 7 day): 275.8 mg/dL
Hb ([…], time 7 day): 13.2 g/dL
Ht ([…], time 7 day): 39.2%
Lym ([…], time 7 day): 79.2%
MCH ([…], time 7 day): 20.7 pg
MCHC ([…], time 7 day): 33.7%
MCV ([…], time 7 day): 61.4 fL
Mono ([…], time 7 day): 3%
Neu ([…], time 7 day): 16.2%
PT ([…], time 7 day): 11.8 s
Plat ([…], time 7 day): 118.3 x10_4/uL
RBC ([…], time 7 day): 639.2 x10_4/ul
Ret ([…], time 7 day): 6.4%
WBC ([…], time 7 day): 84.5 x10_2/uL
APTT ([…], time 14 day): 16.3 s
Bas ([…], time 14 day): 0%
Eos ([…], time 14 day): 0.8%
Fbg ([…], time 14 day): 282.2 mg/dL
Hb ([…], time 14 day): 14.6 g/dL
Ht ([…], time 14 day): 42.3%
Lym ([…], time 14 day): 83.4%
MCH ([…], time 14 day): 20.9 pg
MCHC ([…], time 14 day): 34.6%
MCV ([…], time 14 day): 60.3 fL
Mono ([…], time 14 day): 1.6%
Neu ([…], time 14 day): 13.6%
PT ([…], time 14 day): 11.7 s
Plat ([…], time 14 day): 118.8 x10_4/uL
RBC ([…], time 14 day): 700.4 x10_4/ul
Ret ([…], time 14 day): 4.7%
WBC ([…], time 14 day): 92.5 x10_2/uL
APTT ([…], time 28 day): 17.5 s
Bas ([…], time 28 day): 0%
Eos ([…], time 28 day): 1.2%
Fbg ([…], time 28 day): 274.6 mg/dL
Hb ([…], time 28 day): 15.1 g/dL
Ht ([…], time 28 day): 43%
Lym ([…], time 28 day): 77.6%
MCH ([…], time 28 day): 19.7 pg
MCHC ([…], time 28 day): 35.1%
MCV ([…], time 28 day): 56.2 fL
Mono ([…], time 28 day): 2.4%
Neu ([…], time 28 day): 18.6%
PT ([…], time 28 day): 11.7 s
Plat ([…], time 28 day): 106.6 x10_4/uL
RBC ([…], time 28 day): 765 x10_4/ul
Ret ([…], time 28 day): 2.5%
WBC ([…], time 28 day): 77 x10_2/uL
KIDNEY_L ([…], time 7 day): 1.1 g
KIDNEY_R ([…], time 7 day): 1.1 g
KIDNEY_TOTAL ([…], time 7 day): 2.1 g
KIDNEY_L ([…], time 14 day): 1.2 g
KIDNEY_R ([…], time 14 day): 1.2 g
KIDNEY_TOTAL ([…], time 14 day): 2.4 g
KIDNEY_L ([…], time 28 day): 1.3 g
KIDNEY_R ([…], time 28 day): 1.3 g
KIDNEY_TOTAL ([…], time 28 day): 2.7 g
LIVER ([…], time 7 day): 13.8 g
LIVER ([…], time 14 day): 16.1 g
LIVER ([…], time 28 day): 17.9 g
A/G ([…], time 7 day): 0.9
ALP ([…], time 7 day): 1690.2 IU/L
ALT ([…], time 7 day): 50 IU/L
AST ([…], time 7 day): 68.4 IU/L
BUN ([…], time 7 day): 17.8 mg/dL
CRE ([…], time 7 day): 0.2 mg/dL
Ca ([…], time 7 day): 11.5 mg/dL
Cl ([…], time 7 day): 106.4 meq/L
DBIL ([…], time 7 day): 0.016 mg/dL
GLC ([…], time 7 day): 183.8 mg/dL
IP ([…], time 7 day): 7.2 mg/dL
K ([…], time 7 day): 4.4 meq/L
LDH ([…], time 7 day): 74.2 IU/L
Na ([…], time 7 day): 143.4 meq/L
PL ([…], time 7 day): 150.8 mg/dL
RALB ([…], time 7 day): 2.8 g/dL
TBIL ([…], time 7 day): 0.028 mg/dL
TC ([…], time 7 day): 84.2 mg/dL
TG ([…], time 7 day): 75.2 mg/dL
TP ([…], time 7 day): 6 g/dL
gamma-GTP ([…], time 7 day): 1 IU/L
A/G ([…], time 14 day): 0.9
ALP ([…], time 14 day): 1402 IU/L
ALT ([…], time 14 day): 41 IU/L
AST ([…], time 14 day): 61 IU/L
BUN ([…], time 14 day): 14.2 mg/dL
CRE ([…], time 14 day): 0.2 mg/dL
Ca ([…], time 14 day): 11.3 mg/dL
Cl ([…], time 14 day): 106.8 meq/L
DBIL ([…], time 14 day): 0.008 mg/dL
GLC ([…], time 14 day): 180.4 mg/dL
IP ([…], time 14 day): 6.9 mg/dL
K ([…], time 14 day): 4.1 meq/L
LDH ([…], time 14 day): 65.8 IU/L
Na ([…], time 14 day): 143.6 meq/L
PL ([…], time 14 day): 140.8 mg/dL
RALB ([…], time 14 day): 2.8 g/dL
TBIL ([…], time 14 day): 0.056 mg/dL
TC ([…], time 14 day): 83 mg/dL
TG ([…], time 14 day): 87.6 mg/dL
TP ([…], time 14 day): 6.1 g/dL
gamma-GTP ([…], time 14 day): 1 IU/L
A/G ([…], time 28 day): 0.8
ALP ([…], time 28 day): 1043 IU/L
ALT ([…], time 28 day): 40.6 IU/L
AST ([…], time 28 day): 60 IU/L
BUN ([…], time 28 day): 15.4 mg/dL
CRE ([…], time 28 day): 0.3 mg/dL
Ca ([…], time 28 day): 10.6 mg/dL
Cl ([…], time 28 day): 106.6 meq/L
DBIL ([…], time 28 day): 0.01 mg/dL
GLC ([…], time 28 day): 176.6 mg/dL
IP ([…], time 28 day): 5.8 mg/dL
K ([…], time 28 day): 4.2 meq/L
LDH ([…], time 28 day): 53 IU/L
Na ([…], time 28 day): 142.8 meq/L
PL ([…], time 28 day): 137.4 mg/dL
RALB ([…], time 28 day): 2.8 g/dL
TBIL ([…], time 28 day): 0.06 mg/dL
TC ([…], time 28 day): 71.2 mg/dL
TG ([…], time 28 day): 117 mg/dL
TP ([…], time 28 day): 6.3 g/dL
gamma-GTP ([…], time 28 day): 1 IU/L
